# Experimental data: PubChem BioAssay (NCI)
#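 Briefly, cells in 96-well plates were exposed to five compound concentrations for 48 h, and endpoints were estimated by linear interpolation. At the TGI there is no net growth.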
# Assays:
# Assay in all cases: inhibition of tumour cell growth, NCI panel, 48 h
# OVCAR-3 ovarian = test system: OVCAR-3 ovarian
# CCRF-CEM leukemia = test system: CCRF-CEM leukemia
# K-562 leukemia = test system: K-562 leukemia
# M14 melanoma = test system: M14 melanoma
# NCI-H522 lung = test system: NCI-H522 lung
# SK-MEL-28 melanoma = test system: SK-MEL-28 melanoma
# SF-539 CNS = test system: SF-539 CNS
# SR leukemia = test system: SR leukemia
# CAKI-1 renal = test system: CAKI-1 renal
# MDA-MB-435 = test system: MDA-MB-435
# NCI-H226 lung = test system: NCI-H226 lung
# HOP-92 NSCLC = test system: HOP-92 NSCLC
# DU-145 prostate = test system: DU-145 prostate
# U251 CNS = test system: U251 CNS
# HOP-18 NSCLC = test system: HOP-18 NSCLC
# OVCAR-8 ovarian = test system: OVCAR-8 ovarian
# COLO 205 colon = test system: COLO 205 colon
# MALME-3M melanoma = test system: MALME-3M melanoma
# MOLT-4 leukemia = test system: MOLT-4 leukemia
# ACHN renal = test system: ACHN renal
# SNB-78 CNS = test system: SNB-78 CNS
# OVCAR-4 ovarian = test system: OVCAR-4 ovarian
# XF 498 CNS = test system: XF 498 CNS
# LOX IMVI melanoma = test system: LOX IMVI melanoma
# SK-MEL-5 melanoma = test system: SK-MEL-5 melanoma
# LXFL 529 NSCLC = test system: LXFL 529 NSCLC
# UACC-257 melanoma = test system: UACC-257 melanoma
# MDA-N = test system: MDA-N
# HT29 colon = test system: HT29 colon
# A549 NSCLC = test system: A549 NSCLC
# EKVX NSCLC = test system: EKVX NSCLC
# SK-MEL-2 melanoma = test system: SK-MEL-2 melanoma
# KM12 colon = test system: KM12 colon
# RPMI-8226 leukemia = test system: RPMI-8226 leukemia
# T-47D breast = test system: T-47D breast
# SF-295 CNS = test system: SF-295 CNS
# KM20L2 colon = test system: KM20L2 colon
# MDA-MB-231 breast = test system: MDA-MB-231 breast
# SF-268 CNS = test system: SF-268 CNS
# HL-60(TB) leukemia = test system: HL-60(TB) leukemia
# OVCAR-5 ovarian = test system: OVCAR-5 ovarian
# HCT-116 colon = test system: HCT-116 colon
# UACC-62 melanoma = test system: UACC-62 melanoma
# PC-3 prostate = test system: PC-3 prostate
# HCC-2998 colon = test system: HCC-2998 colon
# 786-0 renal = test system: 786-0 renal
# SW-620 colon = test system: SW-620 colon
# SNB-75 CNS = test system: SNB-75 CNS
# TK-10 renal = test system: TK-10 renal
# NCI/ADR-RES ovarian = test system: NCI/ADR-RES ovarian
# MCF7 breast = test system: MCF7 breast
# IGROV1 ovarian = test system: IGROV1 ovarian
# HOP-62 NSCLC = test system: HOP-62 NSCLC
# HS 578T breast = test system: HS 578T breast
# SK-OV-3 ovarian = test system: SK-OV-3 ovarian
# BT-549 breast = test system: BT-549 breast
# DMS 114 small cell lung = test system: DMS 114 small cell lung
# DLD-1 colon = test system: DLD-1 colon
# SNB-19 CNS = test system: SNB-19 CNS
# NCI-H460 lung = test system: NCI-H460 lung
# NCI-H23 lung = test system: NCI-H23 lung
# RXF 393 renal = test system: RXF 393 renal
# A498 renal = test system: A498 renal
# DMS 273 small cell lung = test system: DMS 273 small cell lung
# SN12C renal = test system: SN12C renal
# UO-31 renal = test system: UO-31 renal
smiles,measurement,setting,value
Cc1cccc(C(C)(C)C)c1NC(=O)C(C#N)C1=C(Cl)C(=O)c2ccccc2C1=O (stereo unspecified),TGI,OVCAR-3 ovarian,31.4 µM
same,TGI,CCRF-CEM leukemia,10.7 µM
same,TGI,K-562 leukemia,10.2 µM
same,TGI,M14 melanoma,32.5 µM
same,TGI,NCI-H522 lung,26.9 µM
same,TGI,SK-MEL-28 melanoma,31.5 µM
same,TGI,SF-539 CNS,32.5 µM
same,TGI,SR leukemia,> 100 µM
same,TGI,CAKI-1 renal,31.5 µM
same,TGI,MDA-MB-435,30.6 µM
same,TGI,NCI-H226 lung,21.2 µM
same,TGI,HOP-92 NSCLC,9.68 µM
same,TGI,DU-145 prostate,36.5 µM
same,TGI,U251 CNS,31.3 µM
same,TGI,HOP-18 NSCLC,24.3 µM
same,TGI,OVCAR-8 ovarian,37.4 µM
same,TGI,COLO 205 colon,35 µM
same,TGI,MALME-3M melanoma,31.1 µM
same,TGI,MOLT-4 leukemia,22.6 µM
same,TGI,ACHN renal,27.6 µM
same,TGI,SNB-78 CNS,33.1 µM
same,TGI,OVCAR-4 ovarian,28.9 µM
same,TGI,XF 498 CNS,29.4 µM
same,TGI,LOX IMVI melanoma,30.7 µM
same,TGI,SK-MEL-5 melanoma,31.5 µM
same,TGI,LXFL 529 NSCLC,29.2 µM
same,TGI,UACC-257 melanoma,30.3 µM
same,TGI,MDA-N,27.4 µM
same,TGI,HT29 colon,40.7 µM
same,TGI,A549 NSCLC,46.7 µM
same,TGI,EKVX NSCLC,17.1 µM
same,TGI,SK-MEL-2 melanoma,30.7 µM
same,TGI,KM12 colon,31.3 µM
same,TGI,RPMI-8226 leukemia,49.2 µM
same,TGI,T-47D breast,26.1 µM
same,TGI,SF-295 CNS,30.8 µM
same,TGI,KM20L2 colon,38.4 µM
same,TGI,MDA-MB-231 breast,27.3 µM
same,TGI,SF-268 CNS,31.2 µM
same,TGI,HL-60(TB) leukemia,26 µM
same,TGI,OVCAR-5 ovarian,32 µM
same,TGI,HCT-116 colon,27.2 µM
same,TGI,UACC-62 melanoma,32.5 µM
same,TGI,PC-3 prostate,26.3 µM
same,TGI,HCC-2998 colon,29.7 µM
same,TGI,786-0 renal,30 µM
same,TGI,SW-620 colon,36.3 µM
same,TGI,SNB-75 CNS,27.6 µM
same,TGI,TK-10 renal,33.3 µM
same,TGI,NCI/ADR-RES ovarian,37.7 µM
same,TGI,MCF7 breast,32.9 µM
same,TGI,IGROV1 ovarian,33 µM
same,TGI,HOP-62 NSCLC,32.2 µM
same,TGI,HS 578T breast,52.5 µM
same,TGI,SK-OV-3 ovarian,40.2 µM
same,TGI,BT-549 breast,27.5 µM
same,TGI,DMS 114 small cell lung,38.3 µM
same,TGI,DLD-1 colon,33.4 µM
same,TGI,SNB-19 CNS,39.1 µM
same,TGI,NCI-H460 lung,38.5 µM
same,TGI,NCI-H23 lung,30.2 µM
same,TGI,RXF 393 renal,30.6 µM
same,TGI,A498 renal,44.4 µM
same,TGI,DMS 273 small cell lung,36.2 µM
same,TGI,SN12C renal,31.5 µM
same,TGI,UO-31 renal,27.9 µM
